Molecular target: T1, ITK (Homo sapiens, UniProt Q08881)
T1 construct: purchased Invitrogen PV3875
T1 sequence (Q08881 1-620): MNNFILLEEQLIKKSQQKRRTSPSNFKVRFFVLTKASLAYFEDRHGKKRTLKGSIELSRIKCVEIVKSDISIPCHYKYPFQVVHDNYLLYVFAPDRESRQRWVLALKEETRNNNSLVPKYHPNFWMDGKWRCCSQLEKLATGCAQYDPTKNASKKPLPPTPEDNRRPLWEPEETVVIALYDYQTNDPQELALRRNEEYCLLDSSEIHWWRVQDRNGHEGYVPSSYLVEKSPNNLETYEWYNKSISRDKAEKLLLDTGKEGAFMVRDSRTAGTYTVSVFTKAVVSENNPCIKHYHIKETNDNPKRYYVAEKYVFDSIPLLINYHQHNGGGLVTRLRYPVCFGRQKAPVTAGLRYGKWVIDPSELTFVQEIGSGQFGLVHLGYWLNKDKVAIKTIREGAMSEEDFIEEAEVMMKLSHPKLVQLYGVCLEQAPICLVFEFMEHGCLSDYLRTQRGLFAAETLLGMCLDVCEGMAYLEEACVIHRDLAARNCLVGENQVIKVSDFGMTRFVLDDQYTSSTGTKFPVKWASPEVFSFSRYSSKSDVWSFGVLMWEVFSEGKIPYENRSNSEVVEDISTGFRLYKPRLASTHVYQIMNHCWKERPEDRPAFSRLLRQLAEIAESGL
Assay: ITK enzyme assay (Caliper or LCMS peptide phosphorylation)
Format: biochemical
Details: purified ITK (Invitrogen PV3875), 20 μM ATP, Ki by Morrison's quadratic equation
In short: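 Purified human ITK peptide phosphorylation, quenched with EDTA (50 mM final) for Caliper LabChip separation or TCA (5% v/v final) for UPLC-MS/MS MRM quantification. Ki derived via Morrison tight-binding equation, corrected for competitive inhibition using ATP concentration relative to Km,app.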

Row | SMILES | Ki [nM]
1 | CC(c1ccncc1)n1cc(NC(=O)c2n[nH]c3c2CCC(C)(C)C3)cn1 (single isomer, unassigned) [Example 107b, 6,6-dimethyl-N-(1-(1-(pyridin-4-yl)ethyl)-1H-pyrazol-4-yl)-4,5,6,7-tetrahydro-1H-indazole-3-carboxamide] | 14
2 | CC(c1cncc(F)c1)n1cc(NC(=O)c2n[nH]c3c2CCC(C)(C)C3)cn1 (single isomer, unassigned) [Example 108a, N-(1-(1-(5-fluoropyridin-3-yl)ethyl)-1H-pyrazol-4-yl)-6,6-dimethyl-4,5,6,7-tetrahydro-1H-indazole-3-carboxamide] | 17
3 | CC(c1cncc(F)c1)n1cc(NC(=O)c2n[nH]c3c2CCC(C)(C)C3)cn1 (single isomer, unassigned) [Example 108b, N-(1-(1-(5-fluoropyridin-3-yl)ethyl)-1H-pyrazol-4-yl)-6,6-dimethyl-4,5,6,7-tetrahydro-1H-indazole-3-carboxamide] | 5
4 | COc1ccc(C(C)n2cc(NC(=O)c3n[nH]c4c3CCC(C)(C)C4)cn2)cn1 (single isomer, unassigned) [Example 109a, N-(1-(1-(6-methoxypyridin-3-yl)ethyl)-1H-pyrazol-4-yl)-6,6-dimethyl-4,5,6,7-tetrahydro-1H-indazole-3-carboxamide] | 4
5 | COc1ccc(C(C)n2cc(NC(=O)c3n[nH]c4c3CCC(C)(C)C4)cn2)cn1 (single isomer, unassigned) [Example 109b, N-(1-(1-(6-methoxypyridin-3-yl)ethyl)-1H-pyrazol-4-yl)-6,6-dimethyl-4,5,6,7-tetrahydro-1H-indazole-3-carboxamide] | 21
6 | CC1(C)CCc2c(C(=O)Nc3cnn(C(c4cccc(C#N)c4)C4CCS(=O)(=O)CC4)c3)n[nH]c2C1 (single isomer, unassigned) [Example 110b, N-(1-((3-cyanophenyl)(1,1-dioxidotetrahydro-2H-thiopyran-4-yl)methyl)-1H-pyrazol-4-yl)-6,6-dimethyl-4,5,6,7-tetrahydro-1H-indazole-3-carboxamide] | 3
7 | CC1(C)CCc2c(C(=O)Nc3cnn(C(c4ccccc4)C4CCOCC4)c3)n[nH]c2C1 (single isomer, unassigned) [Example 113a, 6,6-dimethyl-N-(1-(phenyl(tetrahydro-2H-pyran-4-yl)methyl)-1H-pyrazol-4-yl)-4,5,6,7-tetra hydro-1H-indazole-3-carboxamide] | 5
8 | Cn1ccnc1C(c1cccs1)n1cc(NC(=O)c2n[nH]c3c2CCC(C)(C)C3)cn1 (single isomer, unassigned) [Example 114b, 6,6-dimethyl-N-(1-((1-methyl-1H-imidazol-2-yl)(thiophen-2-yl)methyl)-1H-pyrazol-4-yl)-4,5,6,7-tetrahydro-H-indazole-3-carboxamide] | 12
9 | CC1(C)CCc2c(C(=O)Nc3cnn(C(c4cccc(Cl)c4)C4CCOCC4)c3)n[nH]c2C1 (single isomer, unassigned) [Example 115b, N-(1-((3-chlorophenyl)(tetrahydro-2H-pyran-4-yl)methyl)-1H-pyrazol-4-yl)-6,6-dimethyl-4,5,6,7-tetrahydro-1H-indazole-3-carboxamide] | 7
10 | CC1(C)CCc2c(C(=O)Nc3cnn(C(c4cccnc4)C4CS(=O)(=O)C4)c3)n[nH]c2C1 (single isomer, unassigned) [Example 117b] | 6
11 | CC1(C)CCc2c(C(=O)Nc3cnn(C(c4cccc(C(C)(C)O)c4)C4CCS(=O)(=O)CC4)c3)n[nH]c2C1 (single isomer, unassigned) [Example 119b] | 4
12 | CC1(C)CCc2c(C(=O)Nc3cnn(C(CCN4CC(F)(F)C4)c4ccccc4)c3)n[nH]c2C1 (single isomer, unassigned) [Example 121a, N-(1-(3-(3,3-difluoroazetidin-1-yl)-1-phenylpropyl)-1H-pyrazol-4-yl)-6,6-dimethyl-4,5,6,7-tetrahydro-1H-indazole-3-carboxamide] | 6
13 | CN1CCC2(CCc3c(C(=O)Nc4cnn(Cc5ccccc5)c4)n[nH]c3C2)C1=O (single isomer, unassigned) [Example 123a, N-(1-benzyl-1H-pyrazol-4-yl)-1′-methyl-2′-oxo-1,4,5,7-tetrahydrospiro[indazole-6,3′-pyrrolidine]-3-carboxamide] | 88
14 | CC1(C)CCc2c(C(=O)Nc3cnn(C(c4cccc(S(C)(=O)=O)c4)C4CC4)c3)n[nH]c2C1 (single isomer, unassigned) [Example 125b, N-(1-(cyclopropyl(3-(methylsulfonyl)phenyl)methyl)-1H-pyrazol-4-yl)-6,6-dimethyl-4,5,6,7-tetrahydro-1H-indazole-3-carboxamide] | 10

Now those with a lower Ki, led by results:

Row | Ki [nM] | SMILES
15 | 0.2 | CC1(C)CCc2c(C(=O)Nc3cnn(C(c4cccc(C#N)c4)C4CCS(=O)(=O)CC4)c3)n[nH]c2C1 (single isomer, unassigned) [Example 110a, N-(1-((3-cyanophenyl)(1,1-dioxidotetrahydro-2H-thiopyran-4-yl)methyl)-1H-pyrazol-4-yl)-6,6-dimethyl-4,5,6,7-tetrahydro-1H-indazole-3-carboxamide]
16 | 0.3 | CC1(C)CCc2c(C(=O)Nc3cnn(C(c4ccccc4)C4CCOCC4)c3)n[nH]c2C1 (single isomer, unassigned) [Example 113b, 6,6-dimethyl-N-(1-(phenyl(tetrahydro-2H-pyran-4-yl)methyl)-1H-pyrazol-4-yl)-4,5,6,7-tetra hydro-1H-indazole-3-carboxamide]
17 | 0.8 | Cn1ccnc1C(c1cccs1)n1cc(NC(=O)c2n[nH]c3c2CCC(C)(C)C3)cn1 (single isomer, unassigned) [Example 114a, 6,6-dimethyl-N-(1-((1-methyl-1H-imidazol-2-yl)(thiophen-2-yl)methyl)-1H-pyrazol-4-yl)-4,5,6,7-tetrahydro-H-indazole-3-carboxamide]
18 | 0.2 | CC1(C)CCc2c(C(=O)Nc3cnn(C(c4cccc(Cl)c4)C4CCOCC4)c3)n[nH]c2C1 (single isomer, unassigned) [Example 115a, N-(1-((3-chlorophenyl)(tetrahydro-2H-pyran-4-yl)methyl)-1H-pyrazol-4-yl)-6,6-dimethyl-4,5,6,7-tetrahydro-1H-indazole-3-carboxamide]
19 | < 0.1 | CC12Cc3[nH]nc(C(=O)Nc4cnn(C(c5cccnc5)C5CS(=O)(=O)C5)c4)c3CC1C2 (single isomer, unassigned) [Example 116a, N-(1-((1,1-dioxidothietan-3-yl)(pyridin-3-yl)methyl)-1H-pyrazol-4-yl)-5a-methyl-1,4,4a,5,5a,6-hexahydrocyclopropa[f]indazole-3-carboxamide]
20 | 2 | CC12Cc3[nH]nc(C(=O)Nc4cnn(C(c5cccnc5)C5CS(=O)(=O)C5)c4)c3CC1C2 (single isomer, unassigned) [Example 116b, N-(1-((1,1-dioxidothietan-3-yl)(pyridin-3-yl)methyl)-1H-pyrazol-4-yl)-5a-methyl-1,4,4a,5,5a,6-hexahydrocyclopropa[f]indazole-3-carboxamide]
21 | 0.2 | CC1(C)CCc2c(C(=O)Nc3cnn(C(c4cccnc4)C4CS(=O)(=O)C4)c3)n[nH]c2C1 (single isomer, unassigned) [Example 117a]
22 | 0.1 | CC1(C)CCc2c(C(=O)Nc3cnn(C(c4cccc(C(C)(C)O)c4)C4CCS(=O)(=O)CC4)c3)n[nH]c2C1 (single isomer, unassigned) [Example 119a]
23 | 0.1 | CC12Cc3[nH]nc(C(=O)Nc4cnn(C(c5ccccc5)C5CC[S+]([O-])CC5)c4)c3CC1C2 (single isomer, unassigned) [Example 120a, 5a-methyl-N-(1-((1-oxidotetrahydro-2H-thiopyran-4-yl)(phenyl)methyl)-1H-pyrazol-4-yl)-1,4,4a,5,5a,6-hexahydrocyclopropa[f]indazole-3-carboxamide]
24 | < 0.1 | CC12Cc3[nH]nc(C(=O)Nc4cnn(C(c5ccccc5)C5CC[S+]([O-])CC5)c4)c3CC1C2 (single isomer, unassigned) [Example 120b, 5a-methyl-N-(1-((1-oxidotetrahydro-2H-thiopyran-4-yl)(phenyl)methyl)-1H-pyrazol-4-yl)-1,4,4a,5,5a,6-hexahydrocyclopropa[f]indazole-3-carboxamide]
25 | 1 | CC1(C)CCc2c(C(=O)Nc3cnn(C(CCN4CC(F)(F)C4)c4ccccc4)c3)n[nH]c2C1 (single isomer, unassigned) [Example 121b, N-(1-(3-(3,3-difluoroazetidin-1-yl)-1-phenylpropyl)-1H-pyrazol-4-yl)-6,6-dimethyl-4,5,6,7-tetrahydro-1H-indazole-3-carboxamide]
26 | 2 | CC1(C)CCc2c(C(=O)Nc3cnn(C(c4cccc(S(C)(=O)=O)c4)C4CC4)c3)n[nH]c2C1 (single isomer, unassigned) [Example 125a, N-(1-(cyclopropyl(3-(methylsulfonyl)phenyl)methyl)-1H-pyrazol-4-yl)-6,6-dimethyl-4,5,6,7-tetrahydro-1H-indazole-3-carboxamide]
